# Laboratory results from US12098352B2, “Stem cell-based lung-on-chip models” (EMULATE, INC., priority 2018, dated 2024).
# “Also recorded” adds a separate entry of the source.
# Legend:
# [1] = test system: Alveolus-Chip epithelium/endothelium barrier; experiment: Barrier function assay (fluorescent dextran / Lucifer Yellow leakage) in Open-Top Alveolus-Chip; assay type: cell-based, human
# Excerpt: We studied interaction between different chip compartments by perturbating the system with biological and chemical stressors such as LPS, and H2O2 which are known to induce a reversible disruption of the cellular monolayer after acute administration both in vivo and in vitro. […] The presence of a strong barrier is indirectly confirmed by the presence of continuous pattern of E-cad and VE-cad in the monolayer of Alveolar epithelial and endothelial cell, respectively.
# Given the limited availability of in vitro models that can closely mimic human alveolar epithelium function and/or its disease states, we explored whether a microfluidic Alveolus-Chip lined with the primary alveolar epithelial cells on an artificial lung stroma with embedded primary lung fibroblasts and pulmonary microvascular endothelial cells would model a lung injury state. To test this, we exposed the Alveolus-Chips to an acute damage generated by exposure to H2O2 under continuous infusion through the epithelium top channel, similarly to as it is […] administered in mice.
# Air-Liquid interface was replaced by phenol red free MEM (GIBCO: 51200-038) and medium in the bottom fluidical spiraled channel substituted by one containing 1 mg/ml Lucifer Yellow CH, Lithium Salt (ThermoFisher: L453) or 0.1 mg/ml Dextran, Fluorescein, 3000 MW, Anionic, Lysine Fixable (ThermoFisher: D3306). Leakage of the fluorescent probe from the lumen of the spiraled channel to the epithelial compartment was collected from the outlet reservoirs after indicated hours of perfusion. The fluorescence intensity was measured with a 96-well fluorimeter at excitation/emission indicated by the manufacturer.
# [2] = test system: epithelium-endothelium co-culture perfused with human whole blood; conditions: LPS treatment of the alveolar lumen of epithelium-endothelium co-culture; cited from earlier work
# [3] = test system: ICAM1; experiment: ICAM1 immunostaining of endothelial cells (HMECs) lining the vascular surface of the Chip; assay type: cell-based, human
# Protocol: FIG. 22A Effect of LPS on Vascular Expression of ICAM1. […] Representative images (20×) of endothelial cells (HMECs) lining the vascular surface of the Chip fixed and stained for ICAM1 (red) at 24 h post LPS treatment of the alveolar epithelial compartment. Nuclei are colored blue. […] IL-6, il-8 and MCP-1 have 40-90 fold increases in relation to untreated controls. FIG. 22C Detection of exemplary Lung-Specific Cytokines and Chemokines, IL-6; IL-8; MCP-1 and RANTES, in response to LPS stimulation. Co-cultures of Epithelium/Fibroblasts/Vasculature induced higher levels of cytokines than co-cultures of Epithelium/Vasculature; Fibroblasts/Vasculature or Vasculature alone.
# Interconnectivity refers to the observation that adding a compound to the epithelial side may induce a cytokine mediated response in the endothelial side. […] In other words, inflamed epithelial cells modulate function of the endothelial cells.
# Open-Top Organ-Chips were fixed in 10% neutral buffered formalin. Endothelial cells were stained inside the chip by performinutesg the immunofluorescence steps described below directly inside the microfluidic channel. Stroma equivalents were stained as described by the step below inside the chip or alternatively extracted from the chip and processed for immunohistochemistry analysis. […]
# [4] = test system: cellular monolayer barrier; experiment: Barrier function in static transwell; assay type: cell-based; conditions: doses up to 100 ng/ml LPS, 10 mM H2O2
substance,measurement,setting,value
Lipopolysaccharide [LPS],effect of stressor on barrier function,[1]; LPS 10 ng/ml and/or H2O2 10 mM,causes barrier breakdown and disruption of intracellular junction
same,reversibility of barrier breakdown after removal of stressor,[1]; additional 2 days in fresh medium,barrier breakdown in our chip was reversable
same,thrombotic events,[2],triggered thrombotic events
same,"ICAM expression, endothelial cells exposed directly","[3]; LPS directly on endothelial cells, no epithelium",does not induce expression of ICAM
same,vascular expression of ICAM1,"[3]; LPS on the alveolar epithelial compartment, 24 h",induced vascular expression of ICAM1; also recorded: induces expression of ICAM on endothelial cells; also recorded: induces ICAM1 expression only in presence of epithelial cells
same,loss of barrier function,[4],dose dependent loss of barrier function
